Source: EP4786485A1, “STRAIGHT CHAIN PEPTIDE COMPOUND AND USE THEREOF” (Shenzhen Zhongge Biological Technology Co., Ltd., priority 2023, dated 2026)
Where a SMILES comes first, the peptide text is derived from it. [ ]: non-standard residue; d: D form. The star is where a group is joined. Biotin = O=C1N[C@H]2[C@H](CS[C@H]2CCCCC(=O)*)N1; Phe(3,4-Cl2) = N[C@@H](Cc1ccc(Cl)c(Cl)c1)C(=O)O; Lys(Me3) = C[N+](C)(C)CCCC[C@H](N)C(=O)O; Phe(4-Me) = Cc1ccc(C[C@H](N)C(=O)O)cc1; Palmitoyl = CCCCCCCCCCCCCCCC(=O)*; Hyp = O=C(O)[C@@H]1C[C@@H](O)CN1; Ahp = NCCCCCCC(=O)O; βAla = NCCC(=O)O

Key:
Format in all cases: cell-based, Human
Elastin (ELN) = experiment: ELISA: effect of increasing the content of Elastin in fibroblasts; set-up: Effect of increasing the content of Elastin in the fibroblasts: unit not given here; conditions: 1 µM; for Effect of increasing the content of Elastin in the fibroblasts: 24 h incubation, ELISA, blank control (BC) 756.52; for increase in the content of Elastin: in words, compared to the BC, 24 h, fibroblasts
Method: (§1) B. Effects of increasing the contents of Collagen I (type I collagen), hyaluronic acid (HA), and Elastin (ELN) in fibroblasts
(§2) Test materials: Human-derived fibroblasts (Guangdong BioCell Biotechnology Co., Ltd., Lot No. Fb20081902), DMEM culture medium (Gibco, 23042301, expiration date 230522), PBS (Solarbio, P1010), TGF-β1 (Peprotech, 230504), Collagen I ELISA Kit (Cusabio, B21025824), Elastin ELISA Kit (Abcam, GR3446070-2), HA ELISA Kit (RD, P325066), CO2 incubator (Thermo, 150I), super-clean bench (AIRTECH, SW-CJ-1F), and microplate reader (BioTek, Epoch).
(§3) Test methods: • 1) Inoculation: After cell resuscitation, the cells were inoculated into 6-well plates when the plating rate reached around 60%, and were incubated overnight in an incubator (37°C, 5% CO2). • 2) Formulation of solutions: The linear peptide compounds in the sample groups, and PC2 (Biotinoyl-GHK, [drawing 69] ) and PC3 ( [drawing 70] ) in the positive control group were all at the concentration of 1 µM, and the test substance working solutions were formulated. • 3) Administration: When the cell plating rate in the 6-well plates reached 40% to 60%, administration was performed at 2 mL per well. Three duplicate wells were set for each group. Incubation was performed in an incubator (37°C, 5% CO2) for 24 h. • 4) ELISA assay: The ELISA assays were performed according to the instructions of the respective ELISA kits, with the detection indicators being effect of increasing the content of Collagen I in the fibroblasts, effect of increasing the content of HA in the fibroblasts, and effect of increasing the content of Elastin in the fibroblasts, respectively.

[1] = system: Collagen I (type I collagen); experiment: ELISA: effect of increasing the content of Collagen I in fibroblasts; set-up: Effect of increasing the content of Collagen I in the fibroblasts: unit not given here; conditions: 1 µM, 24 h; for Effect of increasing the content of Collagen I in the fibroblasts: human-derived fibroblasts, ELISA, blank control BC = 35.6; for increase in the content of type I collagen (Collagen I): in words, compared to the BC, fibroblasts
Method: as §1, §2, §3

hyaluronic acid (HA) = experiment: ELISA: effect of increasing the content of HA in fibroblasts; set-up: Effect of increasing the content of HA in the fibroblasts: unit not given here; conditions: 1 µM, 24 h; for Effect of increasing the content of HA in the fibroblasts: human-derived fibroblasts, ELISA, blank control BC = 1402.44; for increase in the content of hyaluronic acid (HA): in words, compared to the BC, fibroblasts
Method: as §1, §2, §3

Compound | Effect of increasing the content of Elastin in the fibroblasts (Elastin (ELN)) | increase in the content of Elastin (Elastin (ELN)) | Effect of increasing the content of Collagen I in the fibroblasts [1] | increase in the content of type I collagen (Collagen I) [1] | Effect of increasing the content of HA in the fibroblasts (hyaluronic acid (HA)) | increase in the content of hyaluronic acid (HA) (hyaluronic acid (HA))
CNC(=O)[C@H](CCCCN)NC(=O)[C@H](Cc1c[nH]cn1)NC(=O)CNC(=O)[C@H](C)NC(=O)[C@H](C)NC(=O)[C@H](C)NC(=O)[C@H](CCCCN)NC(=O)[C@H](Cc1c[nH]cn1)NC(=O)CNC(C)=O [compound 23] (Ac-GHKAAAGHK-NHMe) | 1097.64 | significant increase | 46.06 | significant increase | 2533.64 | significant increase
CCCCCCCCCCCCCCCC(=O)N[C@@H](CCCC[N+](C)(C)C)C(=O)N[C@@H](C)C(=O)N[C@@H](C)C(=O)N[C@@H](C)C(=O)NCC(=O)N[C@@H](Cc1c[nH]cn1)C(=O)N[C@@H](CCCCN)C(=O)O [compound 234] (Palmitoyl-[Lys(Me3)]AAAGHK-OH) | 900.83 | significant increase | 49.53 | significant increase | 2356.91 | significant increase
CNC(=O)[C@H](Cc1ccc(Cl)c(Cl)c1)NC(=O)[C@H](C)NC(=O)[C@H](CCCCN)NC(=O)[C@H](Cc1c[nH]cn1)NC(=O)CNC(=O)[C@H](CCCC[N+](C)(C)C)NC(C)=O [compound 338] (Ac-[Lys(Me3)]GHKA[Phe(3,4-Cl2)]-NHMe) | 1060.72 | significant increase | 89.07 | significant increase | 1913.07 | significant increase
CCCCCCCCCCCCCCCC(=O)N[C@@H](CCCC[N+](C)(C)C)C(=O)NCC(=O)N[C@@H](Cc1c[nH]cn1)C(=O)N[C@@H](CCCCNC(=O)[C@@H]1CCCN1)C(=O)N[C@@H](Cc1ccc(C)cc1)C(=O)O [compound 397] (Palmitoyl-[Lys(Me3)]GHK(Pro)[Phe(4-Me)]-OH) | 1115.1 | significant increase | 54.45 | significant increase | 1832.87 | significant increase
CNC(=O)[C@H](Cc1ccc(C)cc1)NC(=O)[C@H](CCCCNC(=O)[C@@H]1C[C@@H](O)CN1)NC(=O)[C@H](Cc1c[nH]cn1)NC(=O)CNC(=O)[C@H](CCCC[N+](C)(C)C)NC(C)=O [compound 373] (Ac-[Lys(Me3)]GHK(Hyp)[Phe(4-Me)]-NHMe) | 843.14 | significant increase | 57.84 | significant increase | 2472.81 | significant increase
CCCCCCCCCCCCCCCC(=O)N[C@@H](Cc1ccc(OCC)cc1)C(=O)N[C@@H](C)C(=O)N[C@@H](CCCCN)C(=O)N[C@@H](Cc1c[nH]cn1)C(=O)NCC(=O)N[C@@H](CCCC[N+](C)(C)C)C(=O)O [compound 417] (Palmitoyl-Y(Et)AKHG[Lys(Me3)]-OH) | 861.32 | significant increase | 92.88 | significant increase | 1938.51 | significant increase
NCCCC[C@H](NC(=O)CCCCCCNC(=O)CCCC[C@@H]1SC[C@@H]2NC(=O)N[C@@H]21)C(=O)N[C@@H](Cc1c[nH]cn1)C(=O)NCC(N)=O [compound 242] ({Biotin-Ahp}-Lys-His-Gly-NH2) | 1159.72 | significant increase | 70.24 | significant increase |  | 
CNC(=O)CNC(=O)[C@H](Cc1c[nH]cn1)NC(=O)[C@H](CCCCN)NC(=O)CCCCCCNC(C)=O [compound 77] (Ac-[Ahp]KHG-NHMe) | 1093.49 | significant increase | 89.94 | significant increase | 3493 | significant increase
CNC(=O)[C@H](Cc1ccc(C)cc1)NC(=O)CNC(=O)[C@H](CCCCN)NC(=O)[C@H](Cc1c[nH]cn1)NC(=O)CNC(=O)[C@H](CCCC[N+](C)(C)C)NC(C)=O [compound 349] (Ac-[Lys(Me3)]GHKG[Phe(4-Me)]-NHMe) | 836 | significant increase | 90.16 | significant increase | 1794.21 | significant increase
CNC(=O)[C@H](CCCCN)NC(=O)[C@H](Cc1c[nH]cn1)NC(=O)CNC(=O)CCNC(=O)CCNC(=O)[C@H](CCCCN)NC(=O)[C@H](Cc1c[nH]cn1)NC(=O)CNC(C)=O [compound 21] (Ac-GHK[βAla][βAla]GHK-NHMe) | 1160.14 | significant increase |  |  | 2423.11 | significant increase
CCCCCCCCCCCCCCCC(=O)N[C@@H](CCCC[N+](C)(C)C)C(=O)NCC(=O)N[C@@H](Cc1c[nH]cn1)C(=O)N[C@@H](CCCCN)C(=O)N[C@@H](C)C(=O)N[C@@H](Cc1ccc(C)cc1)C(=O)O [compound 424] (Palmitoyl-[Lys(Me3)]GHKA[Phe(4-Me)]-OH) | 897.36 | significant increase | 97.9 | significant increase |  | 
CNC(=O)[C@H](CCCCN)NC(=O)[C@H](Cc1c[nH]cn1)NC(=O)CNC(=O)CCCCCCNC(=O)[C@H](CCCCN)NC(=O)[C@H](Cc1c[nH]cn1)NC(=O)CNC(C)=O [compound 6] (Ac-GHK[Ahp]GHK-NHMe) | 1070.92 | significant increase | 44.54 | significant increase |  | 
C[C@H](NC(=O)[C@H](Cc1ccc(Cl)c(Cl)c1)NC(=O)CCCC[C@@H]1SC[C@@H]2NC(=O)N[C@@H]21)C(=O)N[C@@H](CCCCN)C(=O)N[C@@H](Cc1c[nH]cn1)C(=O)NCC(=O)N[C@@H](CCCC[N+](C)(C)C)C(N)=O [compound 419] (Biotin-[Phe(3,4-Cl2)]AKHG[Lys(Me3)]-NH2) | 1015.58 | significant increase | 109.96 | significant increase |  | 
C[N+](C)(C)CCCC[C@H](NC(=O)CCCC[C@@H]1SC[C@@H]2NC(=O)N[C@@H]21)C(=O)NCCCCCCC(=O)NCC(=O)N[C@@H](Cc1c[nH]cn1)C(=O)N[C@@H](CCCCNC(=O)[C@@H]1CCCN1)C(N)=O [compound 265] (Biotin-[Lys(Me3)][Ahp]GHK(Pro)-NH2) | 1008.26 | significant increase | 56.34 | significant increase |  | 
CCCCCCCCCCCCCCCC(=O)NCCCCCCC(=O)N[C@@H](CCCCN)C(=O)N[C@@H](Cc1c[nH]cn1)C(=O)NCC(=O)O [compound 224] ({Palmitoyl-Ahp}-Lys-His-Gly-OH) | 932.65 | significant increase | 56.19 | significant increase |  | 
